# In the supplement of paper PMC13380429:
# How the values were obtained:
# Conditions in all cases: 72 h
# [1] = test system: U2OS; experiment: drug sensitivity score (DSS) for viability; higher = more toxic; extreme values may be limits of the assay
# [2] = test system: HepG2; experiment: as above
# [3] = test system: Caco-2; experiment: as above
# [4] = test system: Vero E6; experiment: as above
# [5] = test system: Calu-3; experiment: as above
# [6] = test system: U2OS; experiment: cell viability relative to DMSO; higher = less toxic
# [7] = test system: HepG2; experiment: as above
# [8] = test system: Caco-2; experiment: as above
# [9] = test system: Vero E6; experiment: as above
# [10] = test system: Calu-3; experiment: as above
# [11] = test system: U2OS; experiment: relative viability EC50 (midpoint between 100% and the lowest measured viability); higher = less toxic
# [12] = test system: HepG2; experiment: as above
# [13] = test system: Caco-2; experiment: as above
# [14] = test system: Vero E6; experiment: as above
# [15] = test system: Calu-3; experiment: as above
compound,measurement,setting,value
O=C(Nc1ccccc1F)N[C@H]1N=C(c2ccccc2)c2ccccc2NC1=O [RSV604],drug sensitivity score,[1],0
same,drug sensitivity score,[2],0
same,drug sensitivity score,[3],0.1
same,drug sensitivity score,[4],0
same,drug sensitivity score,[5],0
same,cell viability,[6]; 1 nM,98.5%
same,cell viability,[6]; 10 nM,98.5%
same,cell viability,[6]; 100 nM,98.5%
same,cell viability,[6]; 1000 nM,105%
same,cell viability,[6]; 10000 nM,100%
same,cell viability,[7]; 1 nM,109%
same,cell viability,[7]; 10 nM,110%
same,cell viability,[7]; 100 nM,95.9%
same,cell viability,[7]; 1000 nM,96.5%
same,cell viability,[7]; 10000 nM,109%
same,cell viability,[8]; 1 nM,92.5%
same,cell viability,[8]; 10 nM,107%
same,cell viability,[8]; 100 nM,97.2%
same,cell viability,[8]; 1000 nM,102%
same,cell viability,[8]; 10000 nM,85.2%
same,cell viability,[9]; 1 nM,95.1%
same,cell viability,[9]; 10 nM,101%
same,cell viability,[9]; 100 nM,95.8%
same,cell viability,[9]; 1000 nM,95.3%
same,cell viability,[9]; 10000 nM,92%
same,cell viability,[10]; 1 nM,94.2%
same,cell viability,[10]; 10 nM,90.5%
same,cell viability,[10]; 100 nM,99.2%
same,cell viability,[10]; 1000 nM,102%
same,cell viability,[10]; 10000 nM,89.8%
same,relative viability EC50,[11],> 10 µM
same,relative viability EC50,[12],> 10 µM
same,relative viability EC50,[13],> 10 µM
same,relative viability EC50,[14],> 10 µM
same,relative viability EC50,[15],> 10 µM
O[C@H]1CC[C@H](Nc2nc(-c3ccccc3)nc3[nH]ccc23)CC1 [SLV-320],drug sensitivity score,[1],0
same,drug sensitivity score,[2],0
same,drug sensitivity score,[3],0
same,drug sensitivity score,[4],0
same,drug sensitivity score,[5],0
same,cell viability,[6]; 1 nM,99.5%
same,cell viability,[6]; 10 nM,94.4%
same,cell viability,[6]; 100 nM,97.7%
same,cell viability,[6]; 1000 nM,95.7%
same,cell viability,[6]; 10000 nM,96.9%
same,cell viability,[7]; 1 nM,92.8%
same,cell viability,[7]; 10 nM,106%
same,cell viability,[7]; 100 nM,94.9%
same,cell viability,[7]; 1000 nM,99.2%
same,cell viability,[7]; 10000 nM,91.7%
same,cell viability,[8]; 1 nM,102%
same,cell viability,[8]; 10 nM,94.4%
same,cell viability,[8]; 100 nM,102%
same,cell viability,[8]; 1000 nM,102%
same,cell viability,[8]; 10000 nM,102%
same,cell viability,[9]; 1 nM,104%
same,cell viability,[9]; 10 nM,109%
same,cell viability,[9]; 100 nM,101%
same,cell viability,[9]; 1000 nM,99%
same,cell viability,[9]; 10000 nM,91.4%
same,cell viability,[10]; 1 nM,99.5%
same,cell viability,[10]; 10 nM,93.9%
same,cell viability,[10]; 100 nM,99.5%
same,cell viability,[10]; 1000 nM,90.8%
same,cell viability,[10]; 10000 nM,102%
same,relative viability EC50,[11],> 10 µM
same,relative viability EC50,[12],> 10 µM
same,relative viability EC50,[13],> 10 µM
same,relative viability EC50,[14],> 10 µM
same,relative viability EC50,[15],> 10 µM
C[C@H](Nc1cc(NS(=O)(=O)N2CCC2)nc(SCc2cccc(F)c2F)n1)[C@@H](O)CO [SRT3190],drug sensitivity score,[1],0
same,drug sensitivity score,[2],0
same,drug sensitivity score,[3],0
same,drug sensitivity score,[4],0
same,drug sensitivity score,[5],0
same,cell viability,[6]; 1 nM,98.4%
same,cell viability,[6]; 10 nM,95.2%
same,cell viability,[6]; 100 nM,100%
same,cell viability,[6]; 1000 nM,93.2%
same,cell viability,[6]; 10000 nM,94.5%
same,cell viability,[7]; 1 nM,97.6%
same,cell viability,[7]; 10 nM,90.1%
same,cell viability,[7]; 100 nM,91%
same,cell viability,[7]; 1000 nM,111%
same,cell viability,[7]; 10000 nM,96%
same,cell viability,[8]; 1 nM,103%
same,cell viability,[8]; 10 nM,91%
same,cell viability,[8]; 100 nM,93.3%
same,cell viability,[8]; 1000 nM,96%
same,cell viability,[8]; 10000 nM,101%
same,cell viability,[9]; 1 nM,102%
same,cell viability,[9]; 10 nM,100%
same,cell viability,[9]; 100 nM,95.2%
same,cell viability,[9]; 1000 nM,98.5%
same,cell viability,[9]; 10000 nM,96.4%
same,cell viability,[10]; 1 nM,104%
same,cell viability,[10]; 10 nM,97.1%
same,cell viability,[10]; 100 nM,99.9%
same,cell viability,[10]; 1000 nM,89.9%
same,cell viability,[10]; 10000 nM,98.5%
same,relative viability EC50,[11],> 10 µM
same,relative viability EC50,[12],> 10 µM
same,relative viability EC50,[13],> 10 µM
same,relative viability EC50,[14],> 10 µM
same,relative viability EC50,[15],> 10 µM
CC(=O)N1CCC(C(=O)N(CCCN2CCC(Cc3ccc(C(N)=O)cc3)CC2)c2ccc(C)c(Cl)c2)CC1 [TAK-220],drug sensitivity score,[1],0
same,drug sensitivity score,[2],0
same,drug sensitivity score,[3],0
same,drug sensitivity score,[4],0
same,drug sensitivity score,[5],0
same,cell viability,[6]; 1 nM,97.3%
same,cell viability,[6]; 10 nM,99.3%
same,cell viability,[6]; 100 nM,99.4%
same,cell viability,[6]; 1000 nM,99.9%
same,cell viability,[6]; 10000 nM,95.3%
same,cell viability,[7]; 1 nM,99.9%
same,cell viability,[7]; 10 nM,87.2%
same,cell viability,[7]; 100 nM,94.1%
same,cell viability,[7]; 1000 nM,94.5%
same,cell viability,[7]; 10000 nM,98.6%
same,cell viability,[8]; 1 nM,85.2%
same,cell viability,[8]; 10 nM,95.1%
same,cell viability,[8]; 100 nM,93.5%
same,cell viability,[8]; 1000 nM,102%
same,cell viability,[8]; 10000 nM,98.3%
same,cell viability,[9]; 1 nM,113%
same,cell viability,[9]; 10 nM,101%
same,cell viability,[9]; 100 nM,106%
same,cell viability,[9]; 1000 nM,92.4%
same,cell viability,[9]; 10000 nM,106%
same,cell viability,[10]; 1 nM,100%
same,cell viability,[10]; 10 nM,101%
same,cell viability,[10]; 100 nM,98.3%
same,cell viability,[10]; 1000 nM,101%
same,cell viability,[10]; 10000 nM,97.9%
same,relative viability EC50,[11],> 10 µM
same,relative viability EC50,[12],> 10 µM
same,relative viability EC50,[13],> 10 µM
same,relative viability EC50,[14],> 10 µM
same,relative viability EC50,[15],> 10 µM
